What follows are compounds tested against GSK 3α (Homo sapiens (Human), UniProt P49840) (assay: GSK 3α enzyme inhibition (FRET, Z-LYTE; Method 2)). Details: read-out: IC50 Values for Enzyme Inhibition GSK3α.
Type: biochemical
Procedure: The enzyme inhibitory activities of compounds disclosed herein are determined by FRET using synthetic peptides labelled with both donor and acceptor fluorophores (Z-LYTE, Invitrogen Ltd., Paisley, UK).
The inhibitory activities of compounds of the invention against the GSK 3α enzyme isoform (Invitrogen), are evaluated by determining the level of activation I phosphorylation of the target peptide. The GSK3-α protein (500 ng/mL, 2.5 μL) is mixed with the test compound (2.5 μL at either 4 μg/mL, 0.4 μg/mL, 0.04 μg/mL, or 0.004 μg/mL) for 2 hr at RT. The FRET peptide (8 μM, 2.5 μL), which is a phosphorylation target for GSK3α, and ATP (40 μM, 2.5 μL) are then added to the enzyme\compound mixture and the resulting mixture incubated for 1 hr. Development reagent (protease, 5 μL) is added for 1 hr prior to detection in a fluorescence microplate reader (Varioskan® Flash, ThermoFisher Scientific).
In all cases, the site-specific protease cleaves non-phosphorylated peptide only and eliminates the FRET signal. Phosphorylation levels of each reaction are calculated using the ratio of coumarin emission (donor) over fluorescein emission (acceptor), for which high ratios indicate high phosphorylation and low ratios indicate low phosphorylation levels.
This method follows the same steps as Method 1 above, but utilises a shorter period of mixing of the test compound (105 minutes instead of 2 hours) with the GSK3-α protein. In addition, the concentrations of test compound employed are either 10 μg/mL, 1 μg/mL, 0.1 μg/mL, or 0.01 μg/mL

Chain of GSK 3α (P49840 whole entry): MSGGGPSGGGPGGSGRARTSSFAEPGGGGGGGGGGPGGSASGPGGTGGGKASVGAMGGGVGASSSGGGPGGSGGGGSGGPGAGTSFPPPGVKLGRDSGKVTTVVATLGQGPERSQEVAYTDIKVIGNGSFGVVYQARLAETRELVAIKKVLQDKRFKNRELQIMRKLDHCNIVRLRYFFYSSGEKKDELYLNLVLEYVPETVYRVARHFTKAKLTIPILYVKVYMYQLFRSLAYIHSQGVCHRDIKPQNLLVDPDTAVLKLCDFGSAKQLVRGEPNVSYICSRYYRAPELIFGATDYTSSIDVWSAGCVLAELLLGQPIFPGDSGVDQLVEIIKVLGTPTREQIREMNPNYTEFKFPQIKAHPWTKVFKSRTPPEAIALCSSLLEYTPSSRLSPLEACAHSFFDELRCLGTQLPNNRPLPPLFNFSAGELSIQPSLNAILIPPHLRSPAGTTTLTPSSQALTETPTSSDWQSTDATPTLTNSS

Compared with `COc1cc(Nc2cc(Oc3ccc(NC(=O)Nc4cc(C(C)(C)C)cc(NS(C)(=O)=O)c4OC)c4ccccc34)ccn2)cc(C(=O)NCCN2CCCC2)c1` [83(d), 3-((4-((4-(3-(5-(tert-butyl)-2-methoxy-3-(methysulfonamido)phenyl)ureido)naphthalen-1-yl)oxy)pyridin-2-yl)amino)-5-methoxy-N-(2-(pyrrolidin-1-yl)ethyl)benzamide], `COc1cc(Nc2cc(Oc3ccc(NC(=O)Nc4cc(C(C)(C)C)cc(NS(C)(=O)=O)c4OC)c4ccccc34)ccn2)cc(C(=O)NCCN2CCCCC2)c1` [83(e), 3-((4-((4-(3-(5-(tert-butyl)-2-methoxy-3-(methylsulfonamido)phenyl)ureido)naphthalen-1-yl)oxy)pyridin-2-yl)amino)-5-methoxy-N-(2-(piperidin-1-yl)ethyl)benzamide] is 1.6-fold higher in IC50: 1020 nM for the first, 1590 nM for the second.

First: COc1c(NC(=O)Nc2ccc(Oc3ccnc(Nc4ccccc4)c3)c3ccccc23)cc(C(C)(C)C)cc1NS(=O)(=O)N1CCOCC1 [83(f), N-(5-(tert-butyl)-2-methoxy-3-(3-(4-((2-(phenylamino)pyridin-4-yl)oxy)naphthalen-1-yl)ureido)phenyl)morpholine-4-sulfonamide]
Second: COc1c(NC(=O)Nc2ccc(Oc3ccnc(Nc4ccccc4)c3)c3ccccc23)cc(C(C)(C)C)cc1C(=O)N[C@@H]1CCOC1 [84(c), 3-[[4-[(2-Anilino-4-pyridyl)oxy]-1-naphthyl]carbamoylamino]-5-tert-butyl-2-methoxy-N-[(3R)-tetrahydrofuran-3-yl]benzamide]
The IC50 of the first is 2.9-fold higher: 14400 nM for the first, 4950 nM for the second. The second is the more potent here.

Going from `COCCOCCOCCOc1cc(Nc2cc(Oc3ccc(NC(=O)Nc4cc(C(C)(C)C)cc(C(=O)NCCN)c4OC)c4ccccc34)ccn2)cc(OC)c1` [83(g), N-(2-aminoethyl)-5-(tert-butyl)-2-methoxy-3-(3-(4-((2-((3-methoxy-5-(2-(2-(2-methoxy-ethoxy)ethoxy)ethoxy)phenyl)amino)pyridin-4-yl)oxy)naphthalen-1-yl)ureido)benzamide] to `CCNC(=O)c1cc(C(C)(C)C)cc(NC(=O)Nc2ccc(Oc3ccnc(Nc4cc(OC)cc(OCCOCCOCCOC)c4)n3)c3ccccc23)c1OC` [Example 41, 5-(tert-Butyl)-N-ethyl-2-methoxy-3-(3-(4-((2-((3-methoxy-5-(2-(2-(2-methoxyethoxy)-ethoxy)ethoxy)phenyl)amino)pyrimidin-4-yl)oxy)naphthalen-1-yl)ureido)benzamide], the IC50 falls from 2200 nM to 446 nM (4.9-fold). The second is the more potent here.

`COc1c(NC(=O)Nc2ccc(Oc3ccnc(Nc4ccccc4)c3)c3ccccc23)cc(C(C)(C)C)cc1C(=O)NC1CCN(C)CC1` [84(b), 3-[[4-[(2-Anilino-4-pyridyl)oxy]-1-naphthyl]carbamoylamino]-5-tert-butyl-2-methoxy-N-(1-methyl-4-piperidyl)benzamide] and `COc1cc(CO)cc(Nc2cc(Oc3ccc(NC(=O)Nc4cc(C(C)(C)C)cc(NS(C)(=O)=O)c4OC)c4ccccc34)ccn2)c1` [84(f), 1-[5-tert-Butyl-3-(methanesulfonamido)-2-methoxyphenyl]-3-[4-[[2-[3-(hydroxymethyl)-5-methoxyanilino]-4-pyridyl]oxy]-1-naphthyl]urea] are within 1.5-fold of each other in IC50: 4510 nM for the first, 3400 nM for the second.

First: C#Cc1cc(Nc2nccc(Oc3ccc(NC(=O)Nc4cc(C(C)(C)C)cc(C(N)=O)c4OC)c4ccccc34)n2)cc(C(=O)NCCN2CCOCC2)c1 [85(g), 5-tert-Butyl-3-[[4-[2-[3-ethynyl-5-(2-morpholinoethylcarbamoyl)anilino]-pyrimidin-4-yl]oxy-1-naphthyl]carbamoylamino]-2-methoxy-benzamide]
Second: COc1cc(Nc2nccc(Oc3ccc(NC(=O)Nc4cc(C(C)(C)C)cc(NS(C)(=O)=O)c4OC)c4ccccc34)n2)cc(C(=O)NCCOCCOCCC(=O)O)c1 [Example 26]
The IC50 of the first is 8.6-fold higher: 437 nM for the first, 51 nM for the second. The second is the more potent here.

Going from `COc1cc(Nc2cc(Oc3ccc(NC(=O)Nc4cc(C(C)(C)C)cc(NS(C)(=O)=O)c4OC)c4ccccc34)ccn2)cc(C(=O)NCCN2CC[S+]([O-])CC2)c1` [85(j), 3-[[4-[[4-[[5-tert-Butyl-3-(methanesulfonanido)-2-methoxyphenyl]-carbamoylamino]-1-naphthyl]oxy]-2-pyridyl]amino]-5-methoxy-N-[2-(1-oxo-1,4-thiazinan-4-yl)ethyl]benzamide] to `COc1cc(Nc2nccc(Oc3ccc(NC(=O)Nc4cc(C(C)(C)C)cc(NS(C)(=O)=O)c4OC)c4ccccc34)n2)cc(OCCOCCC(=O)O)c1` [Example 31, 3-(2-(3-((4-((4-(3-(5-(tert-Butyl)-2-methoxy-3-(methylsulfonamido)phenyl)ureido)-naphthalen-1-yl)oxy)pyrimidin-2-yl)amino)-5-methoxyphenoxy)ethoxy)propanoic acid], the IC50 falls from 736 nM to 135 nM (5.5-fold). The second is the more potent here.

First: COCCOCCOCCOc1cc(Nc2nccc(Oc3ccc(NC(=O)Nc4cc(C(C)(C)C)ccc4OC)c4ccccc34)n2)cc(OC)c1 [Example 8, 1-(5-(tert-Butyl)-2-methoxhenv)-3-(4-((2-((3-methoxy-5-(2-(2-(2-methoxyethoxy)ethoxy)-ethoxy)phenyl)amino)pyrimidin-4-yl)oxy)naphthalen-1-yl)urea]
Second: COCCOCCOCCOc1cc(Nc2nccc(Oc3ccc(NC(=O)Nc4cc(C(C)(C)C)cc(N)c4OC)c4ccccc34)n2)cc(OC)c1 [Example 25, 1-(3-Amino-5-(tert-butyl)-2-methoxyphenyl)-3-(4-((2-((3-methoxy-5-(2-(2-(2-methoxy-ethoxy)ethoxy)ethoxy)phenyl)amino)pyrimidin-4-yl)oxy)naphthalen-1-yl)urea]
The IC50 of the first is 5.3-fold higher: 9940 nM for the first, 1890 nM for the second.

First: COCCOCCOCCOc1cc(Nc2nccc(Oc3ccc(NC(=O)Nc4cc(N5CCOCC5)ccc4OC)c4ccccc34)n2)cc(OC)c1 [Example 12, 1-(4-((2-((3-Methoxy-5-(2-(2-(2-methoxyethoxy)ethoxy)ethoxy)phenyl)amino)-pyrmidin-4-yl)oxy)naphthalen-1-yl)-3-(2-methoxy-5-morpholinophenyl)urea]
Second: CNC(=O)c1cc(N2CCOCC2)cc(NC(=O)Nc2ccc(Oc3ccnc(Nc4cc(OC)cc(OCCOCCOCCOC)c4)n3)c3ccccc23)c1OC [Example 32, 2-Methoxy-3-(3-(4-((2-((3-methoxy-5(2-(2-(2-methoxyethoxy)ethoxy)ethoxy)phenyl)-amino)pyrimidin-4-yl)oxy)naphthalen-1-yl)ureido)-N-methyl-5-morpholinobenzamide]
The IC50 of the first is 18-fold higher: 11300 nM for the first, 629 nM for the second.

Going from `COCCOCCOCCOc1cc(Nc2nccc(Oc3ccc(NC(=O)Nc4cc(C(C)(C)C)cc(C(=O)N(C)C)c4OC)c4ccccc34)n2)cc(OC)c1` [Example 19, 5-(tert-yl)-)-2-methoxy-3-(3-(4-((2-((3-methoxy-5-(2-(2-(2-methoxyethoxy)ethoxy)-ethoxy)phenyl)amino)pyrimidin-4-yl)oxy)naphthalen-1-yl)ureido-N,N-dimethylbenzamide] to `COCCOCCOCCOc1cc(Nc2nccc(Oc3ccc(NC(=O)Nc4cc(C(C)(C)C)cc(C(=O)O)c4OC)c4ccccc34)n2)cc(OC)c1` [Example 21, 5-(tert-Butyl)-2-methoxy-3-(3-(4-((2-((3-methoxy-5-(2-(2-(2-methoxyethoxy)ethoxy)-ethoxy)phenyl)amino)pyrimidin-4-yl)oxy)naphthalen-1-yl)ureido)benzoic acid], the IC50 falls from 4430 nM to 1630 nM (2.7-fold).

First: COCCOCCOCCOc1cc(Nc2nccc(Oc3ccc(NC(=O)Nc4cc(C(C)(C)C)cc(C#N)c4OC)c4ccccc34)n2)cc(OC)c1 [Example 22, 1-(5-(tert-Butyl)-3-cyano-2-methoxyphenyl)-3-(4-((2-((3-methoxy-5-(2-(2-(2-methoxy-ethoxy)ethoxy)ethoxy)phenyl)amino)pyrimidin-4-yl)oxy)naphthalen-1-yl)urea]
Second: COCCOCCOCCOc1cc(Nc2nccc(Oc3ccc(NC(=O)Nc4cc(C(C)(C)C)cc(Nc5ncccn5)c4OC)c4ccccc34)n2)cc(OC)c1 [Example 28, 1-(5-(tert-Butyl)-2-methoxy-3-(pyrimidin-2-ylamino)phenyl)-3-(4-((2-((3-methoxy-5-(2-(2-(2-methoxyethoxy)ethoxy)ethoxy)phenyl)amino)pyrimidin-4-yl)oxy)naphthalen-1-yl)urea]
The IC50 of the first is 1.5-fold lower: 2140 nM for the first, 3210 nM for the second.

Going from `COc1cc(Nc2nccc(Oc3ccc(NC(=O)Nc4cc(C(C)(C)C)cc(NS(C)(=O)=O)c4OC)c4ccccc34)n2)cc(OCCOCCOCCC(=O)O)c1` [Example 30, 3-(2-(2-(3-((4-((4-(3-(5-(tert-Butyl)-2-methoxy-3-(methylsulfonamido)phenyl)ureido)-naphthalen-1-yl)oxy)pyrimidin-2-yl)amino)-5-methoxyphenoxy)ethoxy)ethoxy)propanoic acid] to `COCCOCCOCCOc1cc(Nc2nccc(Oc3ccc(NC(=O)Nc4cc(C(C)(C)C)cc(C(=O)NCc5ccccc5)c4OC)c4ccccc34)n2)cc(OC)c1` [Example 38, N-Benzyl-5-(tert-butyl)-2-methoxy-3-(3-(4-((2-((3-methoxy-5-(2-(2-(2-methoxyethoxy)-ethoxy)ethoxy)phenyl)amino)pyrimidin-4-yl)oxy)naphthalen-1-yl)ureido)benzamide], the IC50 rises from 150 nM to 10700 nM (71-fold). The first is the more potent here.

`COCCOCCOCCOCCOCCOCCOCCNC(=O)c1cc(Nc2nccc(Oc3ccc(NC(=O)Nc4cc(C(C)(C)C)cc(NS(C)(=O)=O)c4OC)c4ccccc34)n2)cc(OC)c1` [Example 40, 3-((4-((4-(3-(5-(tert-Butyl)-2-methoxy-3-(methylsulfonamido)phenyl)ureido)naphthalen-1-yl)oxy)pyrimidin-2-yl)amino)-N-(2,5,8,11,14,17,20-heptaoxadocosan-22-yl)-5-methoxy-benzamide] showed an IC50 of 379 nM.
